Assay results from ChEMBL document CHEMBL3886265, “Imidazole amines as modulators of kinase activity” (2015).

Legend:
[1] = molecular target: Ribosomal protein S6 kinase beta-1 (Homo sapiens, UniProt P23443, T412E); test: P70S6K Enzyme Assay: P70S6K inhibitor compounds are diluted and plated in 96 well plates. A reaction mixture including the following components is then added to the compound plate to initiate the enzyme reaction; P70S6K (3 nM, T412E mutant, Millipore) is mixed with 24 uM ATP in an assay buffer containing 100 mM Hepes (pH 7.5), 5 mM MgCl2, 1 mM DTT, 0.015% Brij and 1 uM of the substrate peptide FITC-AHA-[…]-OH (derived from the S6 ribosomal protein sequence, FITC=fluorescein isothiocyanate, AHA=6-aminohexanoic acid). The reaction is incubated for 90 min at 25° C., before the addition of 10 mM EDTA to stop the reaction. The proportion of substrate and product (phosphorylated) peptide is analysed on a Caliper Life Sciences Lab Chip 3000, using a pressure of -1.4 psi, and upstream and downstream voltages of -3000 and -700 respectively. Product peaks are resolved before substrate peaks on the resulting chromatograms.
[2] = molecular target: RAC-alpha serine/threonine-protein kinase (Homo sapiens, UniProt P31749); test: AKT Enzyme Assay: A TTP Mosquito liquid handling instrument is used to place 125 nl of the appropriate concentration of inhibitor in 100% DMSO (for a dose response curve calculation) into each well of a 384-well plate. To this reaction components are added to a final volume of 12.5 µl: 0.1 ng/µl His-AKT (Full Length), (Invitrogen, Part # P2999, Lot #641228C). 160 uM ATP (Fluka, 02055) 1 mM DTT (Sigma, D0632) 1 mM MgCl2 (Sigma, M1028) 1 µM substrate peptide (sequence FITC-AHA-[…]-NH2), synthesized by Tufts Peptide Synthesis service. 100 mM HEPES pH 7.5 (Calbiochem, 391338)0.015% Brij-35 (Sigma, B4184)The reaction is incubated for 90 min at 25 C, and then stopped by the addition of 70 µl of Stop buffer (100 mM HEPES pH 7.5, 0.015% Brij-35, 10 mM EDTA (Sigma, E7889)).The plate is read on a Caliper LC 3000 in an Off-Chip mobility shift assay format, using the following parameters for a 12-sipper chip: screening pressure -2.3 psi, upstream voltage -500, and downstream voltage -3000.
Chain of RAC-alpha serine/threonine-protein kinase (P31749 whole entry): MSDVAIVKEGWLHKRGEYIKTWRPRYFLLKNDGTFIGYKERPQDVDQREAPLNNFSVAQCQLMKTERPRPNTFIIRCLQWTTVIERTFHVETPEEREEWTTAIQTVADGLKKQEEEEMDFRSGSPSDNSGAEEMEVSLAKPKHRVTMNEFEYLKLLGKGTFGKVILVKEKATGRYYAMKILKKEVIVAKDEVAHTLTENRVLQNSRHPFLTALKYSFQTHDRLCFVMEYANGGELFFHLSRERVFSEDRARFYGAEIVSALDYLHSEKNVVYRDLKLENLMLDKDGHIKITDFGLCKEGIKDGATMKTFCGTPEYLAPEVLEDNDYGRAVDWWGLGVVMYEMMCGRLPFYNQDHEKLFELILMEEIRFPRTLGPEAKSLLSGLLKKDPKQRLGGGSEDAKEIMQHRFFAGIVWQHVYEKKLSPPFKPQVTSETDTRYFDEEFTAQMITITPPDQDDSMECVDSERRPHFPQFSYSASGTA

Chain of Ribosomal protein S6 kinase beta-1 (P23443 whole entry T412E): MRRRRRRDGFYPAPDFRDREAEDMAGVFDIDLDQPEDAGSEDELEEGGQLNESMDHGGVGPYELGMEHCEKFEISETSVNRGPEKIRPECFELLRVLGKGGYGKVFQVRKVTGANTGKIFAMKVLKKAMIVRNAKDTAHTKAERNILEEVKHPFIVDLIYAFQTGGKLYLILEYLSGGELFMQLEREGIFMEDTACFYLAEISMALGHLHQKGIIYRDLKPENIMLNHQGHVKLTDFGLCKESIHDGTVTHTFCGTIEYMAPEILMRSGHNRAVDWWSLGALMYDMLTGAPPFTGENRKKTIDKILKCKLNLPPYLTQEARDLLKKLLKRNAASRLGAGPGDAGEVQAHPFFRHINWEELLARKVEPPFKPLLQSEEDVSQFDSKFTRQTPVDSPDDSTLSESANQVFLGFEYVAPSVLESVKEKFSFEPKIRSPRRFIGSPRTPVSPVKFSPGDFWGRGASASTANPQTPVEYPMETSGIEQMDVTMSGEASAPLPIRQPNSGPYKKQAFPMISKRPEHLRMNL

IC50 [1]: 0.058 µM
IC50 [2]: 0.78 µM
Structure (SMILES): CCc1c(N)ncnc1N1CCC(c2nc(-c3cccc(Cl)n3)cn2CCN2CCC2)CC1
